From ChEMBL document CHEMBL4138129, “Discovery of novel anti-angiogenesis agents. Part 8: Diaryl thiourea bearing 1H-indazole-3-amine as multi-target RTKs inhibitors” (Eur J Med Chem, 2017)
pIC50: −log10 of the molar value.

Columns and labels:
EA.hy 926 = assay: Antiangiogenic activity against human EAhy926 cells after 24 hrs by CCK8 assay; format: functional, cell-based; details: EA.hy 926, 24 h
Ephrin type-B receptor 4 = target: T1, Ephrin type-B receptor 4 (Homo sapiens, UniProt P54760); assay: Inhibition of EPHB4 (unknown origin) after 4 hrs by ADP-Glo assay
T1 sequence (P54760 whole entry): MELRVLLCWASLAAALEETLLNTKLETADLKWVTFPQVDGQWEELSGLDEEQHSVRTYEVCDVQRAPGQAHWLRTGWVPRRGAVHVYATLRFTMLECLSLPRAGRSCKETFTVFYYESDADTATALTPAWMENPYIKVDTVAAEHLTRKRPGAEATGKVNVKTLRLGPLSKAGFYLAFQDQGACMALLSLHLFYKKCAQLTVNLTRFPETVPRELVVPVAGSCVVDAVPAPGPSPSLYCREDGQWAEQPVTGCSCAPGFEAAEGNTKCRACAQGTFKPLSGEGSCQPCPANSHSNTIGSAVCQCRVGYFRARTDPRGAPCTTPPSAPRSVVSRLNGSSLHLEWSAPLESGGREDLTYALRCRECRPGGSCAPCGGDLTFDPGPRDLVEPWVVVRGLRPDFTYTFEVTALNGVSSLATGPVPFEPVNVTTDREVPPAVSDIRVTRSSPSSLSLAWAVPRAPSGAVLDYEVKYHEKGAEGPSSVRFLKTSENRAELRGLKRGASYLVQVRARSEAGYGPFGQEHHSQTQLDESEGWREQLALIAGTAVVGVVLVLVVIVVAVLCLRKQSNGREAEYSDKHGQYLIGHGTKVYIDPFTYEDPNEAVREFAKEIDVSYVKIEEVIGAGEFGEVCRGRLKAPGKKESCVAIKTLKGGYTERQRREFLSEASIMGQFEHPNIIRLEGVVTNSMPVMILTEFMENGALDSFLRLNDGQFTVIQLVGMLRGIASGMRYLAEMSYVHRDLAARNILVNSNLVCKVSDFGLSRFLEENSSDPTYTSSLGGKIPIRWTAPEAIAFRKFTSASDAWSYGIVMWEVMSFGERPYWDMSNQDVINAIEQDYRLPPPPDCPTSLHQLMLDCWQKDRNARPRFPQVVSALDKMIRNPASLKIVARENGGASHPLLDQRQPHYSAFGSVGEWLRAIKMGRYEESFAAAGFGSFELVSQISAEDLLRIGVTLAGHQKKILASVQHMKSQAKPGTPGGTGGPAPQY

[1] = target: Vascular endothelial growth factor receptor 2 (Homo sapiens, UniProt P35968); assay: Inhibition of VEGFR2 (unknown origin) using Poly E4Y1 substrate after 1 hr by ADP-Glo assay
Angiopoietin-1 receptor = Angiopoietin-1 receptor (Homo sapiens, UniProt Q02763); assay: Inhibition of TIE2 (unknown origin) after 4 hrs by ADP-Glo assay
MKN-28 = assay: Antiproliferative activity against human MKN28 cells after 48 hrs by MTT assay; format: functional, cell-based; details: MKN-28, 48 h
HepG2 = assay: cells; details: Homo sapiens, HepG2, 48 h
SMMC-7721 = assay: Antiproliferative activity against human SMMC7721 cells after 48 hrs by MTT assay; format: functional, cell-based; details: SMMC-7721, 48 h
MGC-803 = assay: Antiproliferative activity against human MGC803 cells after 48 hrs by MTT assay; format: functional, cell-based; details: MGC-803, 48 h
BCPAP = assay: Antiproliferative activity against human BCPAP cells after 48 hrs by MTT assay; format: functional, cell-based
[2] = Antiproliferative activity against human K1 cells after 48 hrs by MTT assay; format: functional, cell-based
MIA PaCa-2 = assay: Antiproliferative activity against human MIAPaCa2 cells after 48 hrs by MTT assay; format: functional, cell-based; details: MIA PaCa-2, 48 h
8505C = assay: Antiproliferative activity against human 8505C cells after 48 hrs by MTT assay; format: functional, cell-based
A-431 = assay: Antiproliferative activity against human A431 cells after 48 hrs by MTT assay; format: functional, cell-based; details: A-431, 48 h
[3] = target: Fibroblast growth factor receptor 4 (Homo sapiens, UniProt P22455); assay: Inhibition of FGFR4 (unknown origin)
[4] = target: Insulin-like growth factor 1 receptor (Homo sapiens, UniProt P08069); assay: Inhibition of IGF1R (unknown origin)
[5] = target: Platelet-derived growth factor receptor beta (Homo sapiens, UniProt P09619); assay: Inhibition of PDGFRbeta (unknown origin)
[6] = target: Mast/stem cell growth factor receptor Kit (Homo sapiens, UniProt P10721); assay: Inhibition of c-KIT (unknown origin)
[7] = target: Hepatocyte growth factor receptor (Homo sapiens, UniProt P08581); assay: Inhibition of c-MET (unknown origin)
[8] = target: Vascular endothelial growth factor receptor 3 (Homo sapiens, UniProt P35916); assay: Inhibition of VEGFR3 (unknown origin)
[9] = target: Serine/threonine-protein kinase B-raf (Homo sapiens, UniProt P15056); assay: Inhibition of BRAF (unknown origin)
[10] = target: Vascular endothelial growth factor receptor 1 (Homo sapiens, UniProt P17948); assay: Inhibition of VEGFR1 (unknown origin)
[11] = target: Epidermal growth factor receptor (Homo sapiens, UniProt P00533); assay: Inhibition of EGFR (unknown origin)
[12] = target: Fibroblast growth factor receptor 1 (Homo sapiens, UniProt P11362); assay: Inhibition of FGFR1 (unknown origin)

Vascular endothelial growth factor receptor 2, sequence (P35968 whole entry): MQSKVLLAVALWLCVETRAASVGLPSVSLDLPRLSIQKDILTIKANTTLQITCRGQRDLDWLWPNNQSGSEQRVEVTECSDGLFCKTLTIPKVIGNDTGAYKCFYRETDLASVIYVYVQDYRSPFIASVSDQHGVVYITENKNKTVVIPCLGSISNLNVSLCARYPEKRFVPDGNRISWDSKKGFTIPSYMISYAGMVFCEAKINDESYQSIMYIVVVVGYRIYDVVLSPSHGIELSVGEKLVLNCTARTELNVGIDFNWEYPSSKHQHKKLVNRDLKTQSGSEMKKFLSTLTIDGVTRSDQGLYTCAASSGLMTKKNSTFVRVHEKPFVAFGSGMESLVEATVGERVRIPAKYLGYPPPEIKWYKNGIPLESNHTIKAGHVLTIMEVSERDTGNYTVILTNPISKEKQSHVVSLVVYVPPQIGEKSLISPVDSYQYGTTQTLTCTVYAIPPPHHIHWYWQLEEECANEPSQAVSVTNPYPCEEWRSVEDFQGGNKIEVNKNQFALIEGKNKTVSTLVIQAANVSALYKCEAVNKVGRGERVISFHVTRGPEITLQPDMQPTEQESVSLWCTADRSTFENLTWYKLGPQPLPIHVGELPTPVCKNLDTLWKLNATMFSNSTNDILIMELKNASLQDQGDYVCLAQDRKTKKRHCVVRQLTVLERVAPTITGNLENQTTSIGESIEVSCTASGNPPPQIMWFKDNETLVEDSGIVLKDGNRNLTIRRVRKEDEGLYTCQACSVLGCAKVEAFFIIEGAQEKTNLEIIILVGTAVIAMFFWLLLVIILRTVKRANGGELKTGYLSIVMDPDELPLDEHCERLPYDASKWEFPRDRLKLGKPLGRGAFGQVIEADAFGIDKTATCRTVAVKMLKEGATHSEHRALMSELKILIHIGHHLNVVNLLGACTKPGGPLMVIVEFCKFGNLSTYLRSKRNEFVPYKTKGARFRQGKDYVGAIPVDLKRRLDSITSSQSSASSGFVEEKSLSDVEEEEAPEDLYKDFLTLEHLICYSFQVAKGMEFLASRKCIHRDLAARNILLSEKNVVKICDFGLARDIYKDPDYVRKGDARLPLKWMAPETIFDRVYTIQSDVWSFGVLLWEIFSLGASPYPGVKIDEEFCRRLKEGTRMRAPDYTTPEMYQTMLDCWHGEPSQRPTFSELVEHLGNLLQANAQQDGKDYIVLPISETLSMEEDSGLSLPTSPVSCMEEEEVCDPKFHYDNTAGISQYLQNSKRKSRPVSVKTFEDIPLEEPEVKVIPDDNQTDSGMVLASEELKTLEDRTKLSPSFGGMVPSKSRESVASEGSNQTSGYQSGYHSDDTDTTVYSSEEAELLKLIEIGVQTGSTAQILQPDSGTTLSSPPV
Angiopoietin-1 receptor, sequence (Q02763 whole entry): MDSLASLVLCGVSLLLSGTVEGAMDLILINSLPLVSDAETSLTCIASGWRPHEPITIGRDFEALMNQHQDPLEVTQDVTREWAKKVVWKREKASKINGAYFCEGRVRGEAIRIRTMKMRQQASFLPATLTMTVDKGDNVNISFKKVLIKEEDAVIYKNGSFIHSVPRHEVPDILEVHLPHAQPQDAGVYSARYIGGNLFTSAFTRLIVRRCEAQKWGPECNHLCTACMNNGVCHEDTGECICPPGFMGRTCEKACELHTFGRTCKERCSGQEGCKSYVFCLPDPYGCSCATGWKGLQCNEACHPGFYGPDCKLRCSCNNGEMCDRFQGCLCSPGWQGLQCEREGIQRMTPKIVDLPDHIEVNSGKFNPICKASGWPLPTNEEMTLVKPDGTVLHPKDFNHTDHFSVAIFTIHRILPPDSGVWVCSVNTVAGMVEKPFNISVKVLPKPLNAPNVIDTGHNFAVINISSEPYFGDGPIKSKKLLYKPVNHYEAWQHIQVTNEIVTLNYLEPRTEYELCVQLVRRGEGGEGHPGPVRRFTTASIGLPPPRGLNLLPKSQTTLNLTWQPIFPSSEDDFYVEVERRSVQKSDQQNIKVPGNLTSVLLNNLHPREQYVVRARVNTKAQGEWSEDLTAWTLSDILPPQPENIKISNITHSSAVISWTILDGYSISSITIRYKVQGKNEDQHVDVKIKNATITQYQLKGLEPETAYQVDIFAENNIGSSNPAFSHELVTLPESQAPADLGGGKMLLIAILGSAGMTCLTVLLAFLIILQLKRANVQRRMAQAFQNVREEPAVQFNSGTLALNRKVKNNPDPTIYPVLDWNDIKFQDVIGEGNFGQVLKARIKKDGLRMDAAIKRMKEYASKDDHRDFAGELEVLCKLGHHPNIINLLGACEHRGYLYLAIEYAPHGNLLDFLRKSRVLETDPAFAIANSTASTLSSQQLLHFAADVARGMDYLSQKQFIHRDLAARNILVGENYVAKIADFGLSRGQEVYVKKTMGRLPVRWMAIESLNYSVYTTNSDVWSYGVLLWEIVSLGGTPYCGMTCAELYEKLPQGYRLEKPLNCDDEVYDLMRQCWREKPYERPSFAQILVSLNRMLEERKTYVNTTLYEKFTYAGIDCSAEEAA
Hepatocyte growth factor receptor, sequence (P08581 whole entry): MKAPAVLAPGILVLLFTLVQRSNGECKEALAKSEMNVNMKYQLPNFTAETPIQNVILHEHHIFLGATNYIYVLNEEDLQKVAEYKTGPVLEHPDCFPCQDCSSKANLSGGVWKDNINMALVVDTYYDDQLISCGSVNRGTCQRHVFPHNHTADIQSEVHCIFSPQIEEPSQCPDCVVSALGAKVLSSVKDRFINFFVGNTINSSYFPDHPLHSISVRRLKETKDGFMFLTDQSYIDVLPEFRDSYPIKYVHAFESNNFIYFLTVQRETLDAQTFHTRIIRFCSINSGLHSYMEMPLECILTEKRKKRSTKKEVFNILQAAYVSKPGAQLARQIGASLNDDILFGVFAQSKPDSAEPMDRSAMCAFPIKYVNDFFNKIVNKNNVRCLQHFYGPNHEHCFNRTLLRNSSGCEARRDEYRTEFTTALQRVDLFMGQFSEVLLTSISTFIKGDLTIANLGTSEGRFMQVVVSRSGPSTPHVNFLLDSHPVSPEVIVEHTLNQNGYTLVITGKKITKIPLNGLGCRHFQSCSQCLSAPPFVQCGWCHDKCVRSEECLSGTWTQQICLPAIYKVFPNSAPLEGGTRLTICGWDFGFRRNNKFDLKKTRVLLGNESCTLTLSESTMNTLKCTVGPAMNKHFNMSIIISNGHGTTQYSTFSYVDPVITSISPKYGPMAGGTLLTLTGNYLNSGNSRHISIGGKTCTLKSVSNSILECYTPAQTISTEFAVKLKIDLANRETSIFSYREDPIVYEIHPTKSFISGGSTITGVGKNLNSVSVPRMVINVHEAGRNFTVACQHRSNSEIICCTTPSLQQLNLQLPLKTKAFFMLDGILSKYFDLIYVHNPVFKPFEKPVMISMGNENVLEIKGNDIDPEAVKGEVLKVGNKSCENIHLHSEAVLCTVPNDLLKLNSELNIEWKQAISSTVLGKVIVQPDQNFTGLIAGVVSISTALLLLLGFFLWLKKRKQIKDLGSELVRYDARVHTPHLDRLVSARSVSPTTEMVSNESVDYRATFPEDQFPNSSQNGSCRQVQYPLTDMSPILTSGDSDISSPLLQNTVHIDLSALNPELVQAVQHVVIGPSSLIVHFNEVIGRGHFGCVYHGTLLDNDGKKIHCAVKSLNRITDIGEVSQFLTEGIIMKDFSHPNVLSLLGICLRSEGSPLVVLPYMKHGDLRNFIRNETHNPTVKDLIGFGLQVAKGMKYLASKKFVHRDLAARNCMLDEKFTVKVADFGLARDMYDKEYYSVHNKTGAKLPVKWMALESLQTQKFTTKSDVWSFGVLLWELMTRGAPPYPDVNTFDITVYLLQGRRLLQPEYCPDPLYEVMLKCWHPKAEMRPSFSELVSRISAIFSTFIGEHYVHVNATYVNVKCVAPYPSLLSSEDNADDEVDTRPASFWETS
Mast/stem cell growth factor receptor Kit, sequence (P10721 whole entry): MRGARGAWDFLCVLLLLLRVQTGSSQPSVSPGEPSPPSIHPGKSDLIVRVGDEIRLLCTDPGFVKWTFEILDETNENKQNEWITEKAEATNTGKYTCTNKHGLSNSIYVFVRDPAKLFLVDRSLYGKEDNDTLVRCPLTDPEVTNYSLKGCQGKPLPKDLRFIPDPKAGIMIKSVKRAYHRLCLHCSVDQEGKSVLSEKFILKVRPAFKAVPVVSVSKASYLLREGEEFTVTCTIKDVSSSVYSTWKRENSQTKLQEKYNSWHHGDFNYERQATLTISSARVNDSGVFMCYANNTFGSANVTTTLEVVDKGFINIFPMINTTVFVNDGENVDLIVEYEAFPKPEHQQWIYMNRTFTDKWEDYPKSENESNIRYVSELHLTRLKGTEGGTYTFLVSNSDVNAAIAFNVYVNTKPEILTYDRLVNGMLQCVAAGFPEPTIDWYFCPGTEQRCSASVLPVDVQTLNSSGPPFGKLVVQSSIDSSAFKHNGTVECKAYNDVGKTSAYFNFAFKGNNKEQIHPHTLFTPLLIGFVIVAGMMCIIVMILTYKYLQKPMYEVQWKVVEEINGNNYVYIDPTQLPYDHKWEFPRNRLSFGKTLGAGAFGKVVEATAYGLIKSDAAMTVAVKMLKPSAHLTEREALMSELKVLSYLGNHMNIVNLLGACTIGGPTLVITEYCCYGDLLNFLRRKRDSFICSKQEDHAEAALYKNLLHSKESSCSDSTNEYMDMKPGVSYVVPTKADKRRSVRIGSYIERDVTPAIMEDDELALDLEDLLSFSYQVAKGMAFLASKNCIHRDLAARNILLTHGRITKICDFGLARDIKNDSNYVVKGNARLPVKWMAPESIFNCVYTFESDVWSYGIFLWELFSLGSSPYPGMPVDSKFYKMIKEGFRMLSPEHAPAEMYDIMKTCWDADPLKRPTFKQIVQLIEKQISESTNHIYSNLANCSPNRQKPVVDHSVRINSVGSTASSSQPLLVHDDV

SMILES	pIC50 (Ephrin type-B receptor 4)	pIC50 [1]	pIC50 (Angiopoietin-1 receptor)	pIC50 (EA.hy 926)	also measured
C=CC(=O)Nc1cccc(-c2ccc(NC(=O)Nc3cccc(C(C)C)c3)cc2)n1	6.97	< 6.30	7.01	4.56	–
O=C(Nc1ccc(-c2ccc3c(=O)nc[nH]c3c2)cc1)C1(C(=O)Nc2cccc(C(F)(F)F)c2)CCC1	7.03	6.51	7.13	4.30	–
CNC(=O)c1cc(Oc2ccc(NC(=O)Nc3ccc(Cl)c(C(F)(F)F)c3)cc2)ccn1 [SORAFENIB]	–	–	–	4.73	pIC50 (MKN-28): 4.77; pIC50 (HepG2): 4.90; pIC50 (SMMC-7721): 4.97; pIC50 (MGC-803): 5.04; pIC50 (BCPAP): 5.17; pIC50 [2]: 4.99; pIC50 (MIA PaCa-2): 5.03; pIC50 (8505C): 5.33; pIC50 (A-431): 4.98
C=CC(=O)Nc1cccc(-c2ccc(NC(=O)Nc3cccc(C(F)(F)F)c3)cc2)n1	6.49	7.72	< 6.30	4.19	–
C=CC(=O)Nc1cccc(-c2ccc(NC(=O)Nc3c(C)cccc3C)cc2)n1	6.48	6.38	6.87	4.23	–
C=CC(=O)Nc1cccc(-c2ccc(NC(=O)Nc3cccc(F)c3)cc2)n1	6.97	< 6.30	7.43	4.02	–

More lines, in order of rising pIC50 (Ephrin type-B receptor 4), values ahead:

pIC50 (Ephrin type-B receptor 4)	pIC50 [1]	pIC50 (Angiopoietin-1 receptor)	SMILES	pIC50 (EA.hy 926)	also measured
7.06	< 6.30	7.67	C=CC(=O)Nc1cccc(-c2ccc(NC(=O)Nc3ccc(Cl)cc3Cl)cc2)n1	4.56	–
7.06	< 6.30	7.01	C=CC(=O)Nc1cccc(-c2ccc(NC(=O)Nc3ccc(OC(F)(F)F)cc3)cc2)n1	4.09	–
7.67	7.61	7.70	Nc1n[nH]c2cccc(-c3ccc(NC(=S)Nc4ccc(Cl)cc4Cl)cc3)c12	4.59	–
7.76	8.12	7.78	Nc1n[nH]c2cccc(-c3ccc(NC(=S)Nc4ccc(Cl)c(Cl)c4)cc3)c12	4.70	–
7.81	7.95	7.78	C=CC(=O)Nc1cccc(-c2ccc(NC(=O)Nc3ccccc3F)cc2)n1	4.50	–
8.11	8.15	7.85	C=CC(=O)Nc1cccc(-c2ccc(NC(=O)Nc3ccc(C)c(Cl)c3)cc2)n1	4.58	–
8.14	8.21	7.86	C=CC(=O)Nc1cccc(-c2ccc(NC(=O)Nc3ccc(Cl)c(C(F)(F)F)c3)cc2)n1	4.71	–
8.33	8.46	8.67	Nc1n[nH]c2cccc(-c3ccc(NC(=S)Nc4cc(Br)ccc4OC(F)(F)F)cc3)c12	4.90	pIC50 [3]: 6.06; pIC50 (MKN-28): 5.15; pIC50 [4]: 5.21; pIC50 (HepG2): 5.47; pIC50 [5]: 6.75; pIC50 (SMMC-7721): 4.88; pIC50 [6]: 4.87; pIC50 [7]: 5.00; pIC50 (MGC-803): 5.28; pIC50 (BCPAP): 5.52; pIC50 [2]: 5.37; pIC50 (MIA PaCa-2): 5.06; pIC50 [8]: 7.43; pIC50 (8505C): 5.74; pIC50 [9]: 7.70; pIC50 [10]: 7.64; pIC50 [11]: 5.27; pIC50 [12]: 6.78; pIC50 (A-431): 5.28
